Experimental data from patent US7794957B2, “Eukaryotic genes involved in adult lifespan regulation” (priority 2001, dated 2010).
“Also recorded” adds a separate entry of the source.

Tested on: C. elegans
Test: Antimycin A treatment, adult lifespan analysis
Type: in vivo
Description: During a systematic screen of a C. elegans Chromosome I RNAi library it was discovered that animals grown on bacteria expressing atp-3 double-stranded RNA lived much longer than normal (Fraser et al., Nature 408:325 (2000)). Lifespan analysis was conducted at 25° C. as described previously (Kenyon et al., Nature 366:461 (1993)). The pre-fertile period of adulthood was used as t=0 for lifespan analysis. Strains were grown at 20° C. for at least two generations before use in lifespan analysis. Statview 5.0.1 (SAS) software was used for statistical analysis and to determine means and percentiles. In all cases, p values were calculated using the logrank (Mantel-Cox) method.
OP-50 bacteria were spread onto NG plates and allowed to grow for two days at room temperature. 50 μl of 0.01 M Antimycin A (Sigma) dissolved in 100% ethanol was dropped onto bacterial lawn and allowed to dry overnight in a fume hood at room temperature. […] Animals were transferred to new Antimycin A plates every 4 days. Control worms (ethanol only) were handled in the same manner) (Table 1).

[1] = fer-15(b26), fem-1(hc17) + 0.1 μM Antimycin A, 25° C.

## Antimycin A
C. elegans, from hatching through adulthood or regimen not stated, listed as antimycin
  effect on lifespan (words): substantially increased lifespan; also recorded: increases lifespan
C. elegans, from hatching through adulthood or regimen not stated, listed as antimycin A
  effect on lifespan (words): increased lifespan
Administration to adult worms
  effect on lifespan (words): increased lifespan
Animals grown in the presence of 0.1 micromolar antimycin in ethanol
  mean lifespan: 21 days
[1]
  75th percentile adult lifespan: 25 days
  Mean ± s.e.m. adult lifespan: 20.4 ± 0.7 days
